Our source for the IC50 values is patent US20200016159A1, “N3-CYCLICALLY SUBSTITUTED THIENOURACILS AND USE THEREOF” (Bayer Aktiengesellschaft, priority 2016, published 2020).

This assay deals with T1, human adenosine A2b receptor (Homo sapiens, UniProt P29275).
T1 sequence (P29275 1-332): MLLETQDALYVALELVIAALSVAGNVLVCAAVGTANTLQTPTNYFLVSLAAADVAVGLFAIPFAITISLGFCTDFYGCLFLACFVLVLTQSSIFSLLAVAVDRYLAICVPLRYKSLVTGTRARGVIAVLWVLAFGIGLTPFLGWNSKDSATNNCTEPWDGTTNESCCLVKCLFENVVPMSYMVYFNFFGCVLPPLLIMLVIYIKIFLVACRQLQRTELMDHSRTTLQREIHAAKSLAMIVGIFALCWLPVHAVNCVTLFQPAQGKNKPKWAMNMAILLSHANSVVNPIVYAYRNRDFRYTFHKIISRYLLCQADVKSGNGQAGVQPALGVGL
Kind of assay: Cellular in vitro reporter gene test for A2b receptor activity (antagonism of NECA). The format is cell-based. Also noted: expressed in transfected cells; host or cells: CHO-K1 (Chinese hamster ovary) with CRE-luciferase reporter. The following applies: recombinant CHO-K1 cells, CRE-luciferase reporter, co-incubation with EC50 concentration of NECA, 3 hours. Put shortly: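 CHO-K1 cells expressing recombinant human A2b receptor plus a CRE-driven firefly luciferase reporter. Compounds co-incubated with NECA at its same-day EC50 concentration; luminescence read 3 hours after NECA addition. IC50 values, sometimes means of several determinations rounded to two significant figures.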

The structures appear in SMILES notation.

Usually IC50 stands for the concentration that inhibits the measured activity by half. Regarding `Cc1c(Cn2nc[nH]c2=O)sc2c1c(=O)n(C1CC1)c(=O)n2CC1CCC1` [Example 18, 1-(Cyclobutylmethyl)-3-cyclopropyl-5-methyl-6-[(5-oxo-4,5-dihydro-1H-1,2,4-triazol-1-yl)methyl]thieno[2,3-d]pyrimidine-2,4(1H,3H)-dione], the IC50 turned out to be 25 nM. As for `Cc1c(CN2CCNC2=O)sc2c1c(=O)n(C1CC(C)(C)C1)c(=O)n2CCC(F)(F)F` [Example 164, 3-(3,3-Dimethylcyclobutyl)-5-methyl-6-[(2-oxoimidazolidin-1-yl)methyl]-1-(3,3,3-trifluoropropyl)thieno[2,3-d]pyrimidine-2,4(1H,3H)-dione], the IC50 is 4.6 nM. For `Cc1c(CN2CCNC2=O)sc2c1c(=O)n(C1CC1)c(=O)n2C[C@@H]1CCCO1` [Example 39, 3-Cyclopropyl-5-methyl-6-[(2-oxoimidazolidin-1-yl)methyl]-1-[(2S)-tetrahydrofuran-2-ylmethyl]thieno[2,3-d]pyrimidine-2,4(1H,3H)-dione], the half-inhibitory concentration (IC50) was determined as 240 nM. Turning to `COCCn1c(=O)n(C2(C)CCC2)c(=O)c2c(C)c(CN3CCNC3=NC#N)sc21` [Example 140, [1-{[1-(2-Methoxyethyl)-5-methyl-3-(1-methylcyclobutyl)-2,4-dioxo-1,2,3,4-tetrahydrothieno[2,3-d]pyrimidin-6-yl]methyl}imidazolidine-2-ylidene]cyanamide], the IC50 was 230 nM. In the case of `Cc1c(Cn2nc[nH]c2=O)sc2c1c(=O)n(C1(C)CCC1)c(=O)n2CCC(F)(F)F` [Example 138, 5-Methyl-3-(1-methylcyclobutyl)-6-[(5-oxo-4,5-dihydro-1H-1,2,4-triazol-1-yl)methyl]-1-(3,3,3-trifluoropropyl)thieno[2,3-d]pyrimidine-2,4(1H,3H)-dione], the IC50 came to 260 nM.

As to `Cc1c(CN2CCNC2=O)sc2c1c(=O)n(C1CC1C)c(=O)n2CCSC(F)(F)F` (racemic) [Example 279, 5-Methyl-3-(2-methylcyclopropyl)-6-[(2-oxoimidazolidin-1-yl)methyl]-1-{2-[(trifluoromethyl)sulfanyl]ethyl}thieno[2,3-d]pyrimidine-2,4(1H,3H)-dione], the 50% inhibitory concentration (IC50) was found to be 1.6 nM.

For `COCCn1c(=O)n(C2(C(F)(F)F)CC2)c(=O)c2c(C)c(CN3CCNC3=O)sc21` [Example 85, 1-(2-Methoxyethyl)-5-methyl-6-[(2-oxoimidazolidin-1-yl)methyl]-3-[1-(trifluoromethyl)cyclopropyl]thieno[2,3-d]pyrimidine-2,4(1H,3H)-dione], the IC50 is 310 nM. As for `COCCn1c(=O)n(C2CC2)c(=O)c2c(C)c(CN3CCNC(=O)C3=O)sc21` [Example 27, 3-Cyclopropyl-6-[(2,3-dioxopiperazin-1-yl)methyl]-1-(2-methoxyethyl)-5-methylthieno[2,3-d]pyrimidine-2,4(1H,3H)-dione], the figure is 40 nM. Consider `Cc1c(Cn2[nH]ccc2=O)sc2c1c(=O)n(C1CC1C)c(=O)n2CCOC(F)(F)F` (single isomer, unassigned) [Example 275, 5-Methyl-3-(2-methylcyclopropyl)-6-[(5-oxo-2,5-dihydro-1H-pyrazol-1-yl)methyl]-1-[2-(trifluoromethoxy)ethyl]thieno[2,3-d]pyrimidine-2,4(1H,3H)-dione], for which the IC50 came out at 63 nM. For `COCCn1c(=O)n(C2CC3(CCC3)C2)c(=O)c2c(C)c(CN3CCNC3=NC#N)sc21` [Example 180, [1-{[1-(2-Methoxyethyl)-5-methyl-2,4-dioxo-3-(spiro[3.3]hept-2-yl)-1,2,3,4-tetrahydrothieno[2,3-d]pyrimidin-6-yl]methyl}imidazolidin-2-ylidene]cyanamide], the IC50 was 13 nM. As for `Cc1c(CN2CCNC2=O)sc2c1c(=O)n(C1CC1C)c(=O)n2CCCC(F)(F)F` (single isomer, unassigned) [Example 244, 5-Methyl-3-(2-methylcyclopropyl)-6-[(2-oxoimidazolidin-1-yl)methyl]-1-(4,4,4-trifluorobutyl)thieno[2,3-d]pyrimidine-2,4(1H,3H)-dione], the figure is 3.3 nM; as for `Cc1c(Cn2nc[nH]c2=O)sc2c1c(=O)n(C1CC1)c(=O)n2CC1CCC(F)(F)C1` (single isomer, unassigned) [Example 210, 3-Cyclopropyl-1-[(3,3-difluorocyclopentyl)methyl]-5-methyl-6-[(5-oxo-4,5-dihydro-1H-1,2,4-triazol-1-yl)methyl]thieno[2,3-d]pyrimidine-2,4(1H,3H)-dione], 200 nM. On to `Cc1c(CN2CCNC2=O)sc2c1c(=O)n(C1CCCC1)c(=O)n2CCC(F)(F)F` [Example 184, 3-Cyclopentyl-5-methyl-6-[(2-oxoimidazolidin-1-yl)methyl]-1-(3,3,3-trifluoropropyl)thieno[2,3-d]pyrimidine-2,4(1H,3H)-dione], for which the concentration for half-maximal inhibition (IC50) worked out at 6.9 nM. For `COCCn1c(=O)n([C@H]2C[C@@H](OC)C2)c(=O)c2c(C)c(CN3CCNC3=NC(=O)OC)sc21` [Example 161, Methyl [1-{[3-(cis-3-methoxycyclobutyl)-1-(2-methoxyethyl)-5-methyl-2,4-dioxo-1,2,3,4-tetrahydrothieno[2,3-d]pyrimidin-6-yl]methyl}imidazolidin-2-ylidene]carbamate], the IC50 turned out to be 130 nM. `COCCn1c(=O)n(C2CC2OC)c(=O)c2c(C)c(Cn3nc[nH]c3=O)sc21` (single isomer, unassigned) [Example 311, 3-(2-Methoxycyclopropyl)-1-(2-methoxyethyl)-5-methyl-6-[(5-oxo-4,5-dihydro-H-1,2,4-triazol-1-yl)methyl]thieno[2,3-d]pyrimidine-2,4(1H,3H)-dione]: the IC50 was 44 nM. As for `Cc1c(Cn2nc[nH]c2=O)sc2c1c(=O)n(C1CC1)c(=O)n2CCOC(C)C` [Example 34, 3-Cyclopropyl-1-(2-isopropoxyethyl)-5-methyl-6-[(5-oxo-4,5-dihydro-H-1,2,4-triazol-1-yl)methyl]thieno[2,3-d]pyrimidine-2,4(1H,3H)-dione], the figure is 500 nM.

In the case of `CCn1c(=O)n(C2CC2C)c(=O)c2c(C)c(CN3CCNC3=O)sc21` (racemic) [Example 224, 1-Ethyl-5-methyl-3-(2-methylcyclopropyl)-6-[(2-oxoimidazolidin-1-yl)methyl]thieno[2,3-d]pyrimidine-2,4(1H,3H)-dione], the IC50 amounted to 11 nM. With `Cc1c(Cn2nc[nH]c2=O)sc2c1c(=O)n(C1CC3(CCC3)C1)c(=O)n2CCC(F)(F)F` [Example 178, 5-Methyl-6-[(5-oxo-4,5-dihydro-1H-1,2,4-triazol-1-yl)methyl]-3-(spiro[3.3]hept-2-yl)-1-(3,3,3-trifluoropropyl)thieno[2,3-d]pyrimidine-2,4(1H,3H)-dione] the figure was 26 nM. With `COC(=O)N=C1NCCN1Cc1sc2c(c1C)c(=O)n([C@H]1C[C@@H](OC)C1)c(=O)n2CCC(F)(F)F` [Example 156, Methyl [1-{[3-(cis-3-methoxycyclobutyl)-5-methyl-2,4-dioxo-1-(3,3,3-trifluoropropyl)-1,2,3,4-tetrahydrothieno[2,3-d]pyrimidin-6-yl]methyl}imidazolidin-2-ylidene]carbamate], the 50% inhibitory concentration (IC50) stood at 18 nM. With `Cc1c(Cn2nc[nH]c2=O)sc2c1c(=O)n(C1CC1)c(=O)n2CCCCF` [Example 198, 3-Cyclopropyl-1-(4-fluorobutyl)-5-methyl-6-[(5-oxo-4,5-dihydro-H-1,2,4-triazol-1-yl)methyl]thieno[2,3-d]pyrimidine-2,4(1H,3H)-dione], the IC50 was 190 nM.
